The text below walks through data of EP0115472A2, “Pyrrolidinon derivatives and process for their preparation” (CIBA-GEIGY AG, priority 1983, dated 1984).

This assay relates to Mäusen. The assay can be described thus: step down passive avoidance test (improvement of memory performance). Particulars: Mus musculus, ip; mice, i.p. within 10 s after foot shock; retest after 24 h; compared with solvent controls; read-out: Dosis, bei der sich eine Verbesserung der Gedächtnisleistung zeigen lässt. In kind it is in vivo, Mäuse. An excerpt:
Zur unmittelbaren Messung der Verbesserung der Gedächtnisleistung wird ein anderer passiver Vermeidungstest (step down passive avoidance test, Psychopharmacol. 63, 297-300 [1979]) verwendet: • Die Testvorrichtung besteht aus einer mit Tageslicht normal beleuchteten Box (50 x 50 x 50 cm) mit einem elektrisch leitenden Gitterrost, dessen Gitterstäbe (6 mm Durchmesser) in einem Abstand von jeweils 13 mm angeordnet sind. In der Mitte des Gitterrostes ist eine hölzerne Plattform (10 mm Höhe, 67 mm Durchmesser) angebracht, welche von einer Plastikröhre (20 cm hoch, 68 mm innerer Durchmesser) umgeben ist. Zur Durchführung des Trainings werden Gruppen von jeweils 30 männlichen Mäusen mit einem Körpergewicht von 20-22g verwendet, indem jeweils ein Tier auf die von der Plastikröhre umgebene Plattform gesetzt, nach 10 Sekunden die Plastikröhre entfernt und die Zeitdauer gemessen wird, welche das Tier zum Hinabsteigen und Berühren des Gitterrostes mit allen 4 Pfoten benötigt. Wenn alle 4 Pfoten den Gitterrost berühren, wird ein Fussschock (1 mA, 50 Hz, 1 Sekunde) verabreicht. Innerhalb von 10 Sekunden nach Verabreichung des Fussschocks werden die Testsubstanzen in Dosen von 3 mg/kg, 10 mg/kg und 30 mg/kg (für jede Dosis werden 30 Mäuse verwendet) als Lösung in physiologischer NaCl-Lösung oder deren Lösungsmittel (physiologische Natriumchloridlösung = Placebo) intraperitoneal verabreicht. […]

On to `NC(=O)CNC(=O)CNC(=O)CN1CCCC1=O` [N-[(2-Oxo-1-pyrrolidinyl)-acetyl]-glycyl-glycinamid], for which the minimal effective dose was 10 mg/kg.
